According to ChEMBL document CHEMBL5352381, “Design and development of a novel series of oral bivalent BET inhibitors with potent anticancer activities” (Eur J Med Chem, 2022):
The source made the active and inactive calls. The rule behind the calls is not given here.

Assays:
[1] = test system: Ty-82; experiment: Induction of apoptosis in human Ty-82 cells assessed as reduction of c-Myc mRNA level at 0.1 to 10 nM for 24 hrs by […]; format: functional, cell-based; conditions: dose 0.1-10 nM
[2] = Toxicity in BALB/c mouse xenografted with human MV4-11 cells assessed as body weight loss at 0.6 mg/kg, po qd 21 days; format: organism-based; conditions: in vivo, 504 h, time 21 day
[3] = test system: Ty-82; experiment: Induction of apoptosis in human Ty-82 cells assessed as increase in caspase 7 at 0.1 to 10 nM for 48 hrs […]; format: functional, cell-based; conditions: dose 0.1-10 nM
[4] = test system: Ty-82; experiment: Antiproliferative activity against human Ty-82 cells incubated for 72 hrs by sulforhodamine B based cell counting kit-8 assay; format: functional; conditions: TY82, 72 h
[5] = test system: MM1.S; experiment: Antiproliferative activity against human MM1.S cells incubated for 72 hrs by sulforhodamine B based cell counting kit-8 assay; format: functional
[6] = Metabolic stability in mouse liver microsomes assessed as clearance; format: ADME, Microsome; conditions: read-out: CLH
[7] = test system: Ty-82; experiment: Antitumor activity against human Ty-82 cells xenografted in BALB/c nude mouse assessed tumor growth inhibition treated at 0.5 mg/kg, po qd for 21 days relative to control; format: functional; conditions: TY82, 504 h, time 21 day, read-out: TGI
[8] = test system: MV4-11; experiment: Antitumor activity against human MV4-11 cells xenografted in BALB/c mouse assessed as growth inhibition at 0.6 mg/kg, po qd 21 days relative to control; format: functional; conditions: MV4-11, 504 h, time 21 day, read-out: GI
[9] = test system: Ty-82; experiment: Induction of apoptosis in human Ty-82 cells assessed as increase in caspase 3 at 0.1 to 10 nM for 48 hrs […]; format: functional, cell-based; conditions: dose 0.1-10 nM
[10] = Metabolic stability in dog liver microsomes assessed as half life; format: ADME, Canis lupus familiaris, Microsome
[11] = test system: Ty-82; experiment: Induction of apoptosis in human Ty-82 cells assessed as reduction of IDO1 mRNA level at 0.1 to 10 nM for 24 hrs by […]; format: functional, cell-based; conditions: dose 0.1-10 nM
[12] = test system: CAPAN-1; experiment: Induction of apoptosis in human CAPAN-1 cells assessed as increase in caspase 9 at 0.1 to 10 nM for 48 hrs […]; format: functional, cell-based; conditions: dose 0.1-10 nM
[13] = Metabolic stability in mouse liver microsomes assessed as half life; format: ADME, Microsome
[14] = test system: Ty-82; experiment: Induction of apoptosis in human Ty-82 cells assessed as increase in caspase 9 at 0.1 to 10 nM for 48 hrs […]; format: functional, cell-based; conditions: dose 0.1-10 nM
[15] = test system: CAPAN-1; experiment: Induction of apoptosis in human CAPAN-1 cells for 48 hrs by annexin V-FITC based flow cytometric analysis; format: functional, cell-based; conditions: dose 0.1-10 nM
[16] = Metabolic stability in dog liver microsomes assessed as clearance; format: ADME, Canis lupus familiaris, Microsome; conditions: read-out: CLH
[17] = test system: CAPAN-1; experiment: Induction of apoptosis in human CAPAN-1 cells assessed as increase in caspase 3 at 0.1 to 10 nM for 48 hrs […]; format: functional, cell-based; conditions: dose 0.1-10 nM
[18] = Metabolic stability in human liver microsomes assessed as clearance; format: ADME, Microsome; conditions: read-out: CLH
[19] = test system: CAPAN-1; experiment: Induction of apoptosis in human CAPAN-1 cells assessed as increased cleaved PARP at 0.1 to 10 nM for 48 hrs […]; format: functional, cell-based; conditions: dose 0.1-10 nM
[20] = Metabolic stability in human liver microsomes assessed as half life; format: ADME, Microsome
[21] = test system: Ty-82; experiment: Induction of apoptosis in human Ty-82 cells for 48 hrs by annexin V-FITC based flow cytometric analysis; format: functional, cell-based; conditions: dose 0.1-10 nM
[22] = Toxicity in BALB/c mouse xenografted with human Ty-82 assessed as body weight loss treated at 0.25 to 0.5 mg/kg, po qd for 21 days; format: organism-based; conditions: in vivo, 504 h, dose 0.25-0.5 mg/kg, time 21 day
[23] = test system: CAPAN-1; experiment: Induction of apoptosis in human CAPAN-1 cells assessed as increase in caspase 7 at 0.1 to 10 nM for 48 hrs […]; format: functional, cell-based; conditions: dose 0.1-10 nM
[24] = Toxicity in BALB/c mouse xenografted with human Ty-82 assessed as death treated at 0.25 to 0.5 mg/kg, po qd for 21 days; format: organism-based; conditions: in vivo, 504 h, dose 0.25-0.5 mg/kg, time 21 day
[25] = test system: Ty-82; experiment: Induction of apoptosis in human Ty-82 cells assessed as increase in cleaved PARP at 0.1 to 10 nM for 48 hrs […]; format: functional, cell-based; conditions: dose 0.1-10 nM

SMILES: C[C@@H]1CN(C(=O)c2nc(-c3ccc4c(c3)N(C3CCC3)[C@H](C)C(=O)N4C)n(-c3cccc(Cl)c3)n2)[C@@H](C)CN1C(=O)c1nc(-c2ccc3c(c2)N(C2CCC2)[C@H](C)C(=O)N3C)n(-c2cccc(Cl)c2)n1
- Activity [1]: Active
- Activity [2]: Toxic
- Activity [3]: Active
- IC50 [4]: 0.05 nM
- IC50 [5]: 0.07 nM
- microsomal CLint [6]: 6.2 µL/min/mg
- inhibition in vivo at 0.5 mg/kg [7]: 73.5%
- inhibition in vivo at 0.6 mg/kg [8]: 88.9%
- Activity [9]: Active
- half-life [10]: 14.6 h
- Activity [11]: Active
- Activity [12]: Active
- half-life [13]: 3.72 h
- Activity [14]: Active
- Activity [15]: Dose-Dependent Effect
- microsomal CLint [16]: 1.6 µL/min/mg
- Activity [17]: Active
- microsomal CLint [18]: 6 µL/min/mg
- Activity [19]: Active
- half-life [20]: 3.86 h
- Activity [21]: Dose-Dependent Effect
- Activity [22]: Toxic
- Activity [23]: Active
- Activity [24]: Non-Toxic
- Activity [25]: Active
